# PMC11822212, “High-throughput screening identifies Aurora kinase B as a critical therapeutic target for Merkel cell carcinoma” (Nature Communications, 2025)
# “And” between values parts separate entries of the source, which are not always exact repeats. Equal entries are not always repeated.
# Assays:
# Assay in all cases: qHTS cell viability (CellTiter-Glo, 72 h; primary and follow-up small molecule screen)
# Format in all cases: cell-based, human
# [1] = system: MCC13 cells (VN-MCC); conditions: for Area under the dose-response curve (AUC) MCC13 Replicate 1 / Area under the dose-response curve (AUC) MCC13 Replicate 2 / Area under the dose-response curve (AUC) MCC13 Replicate 3: follow-up screen
# [2] = system: MCC26 cells (VN-MCC); conditions: for Area under the dose-response curve (AUC) MCC26 Replicate 1 / Area under the dose-response curve (AUC) MCC26 Replicate 2 / Area under the dose-response curve (AUC) MCC26 Replicate 3: follow-up screen
# [3] = system: UISO cells (VN-MCC); conditions: for Area under the dose-response curve (AUC) UISO Replicate 1 / Area under the dose-response curve (AUC) UISO Replicate 2 / Area under the dose-response curve (AUC) UISO Replicate 3: follow-up screen
# [4] = system: WAGA cells (VP-MCC); conditions: for Area under the dose-response curve (AUC) WAGA Replicate 1 / Area under the dose-response curve (AUC) WAGA Replicate 2 / Area under the dose-response curve (AUC) WAGA Replicate 3: follow-up screen
# [5] = system: MKL-1 cells (VP-MCC); conditions: for Area under the dose-response curve (AUC) MKL-1 Replicate 1 / Area under the dose-response curve (AUC) MKL-1 Replicate 2 / Area under the dose-response curve (AUC) MKL-1 Replicate 3: follow-up screen
# [6] = system: MKL-2 cells (VP-MCC); conditions: for Area under the dose-response curve (AUC) MKL-2 Replicate 1 / Area under the dose-response curve (AUC) MKL-2 Replicate 2 / Area under the dose-response curve (AUC) MKL-2 Replicate 3: follow-up screen
Compound,Area under the dose-response curve (AUC) MCC13 Replicate 1 [1],Area under the dose-response curve (AUC) MCC13 Replicate 2 [1],Area under the dose-response curve (AUC) MCC13 Replicate 3 [1],Area under the dose-response curve (AUC) MCC26 Replicate 1 [2],Area under the dose-response curve (AUC) MCC26 Replicate 2 [2],Area under the dose-response curve (AUC) MCC26 Replicate 3 [2],Area under the dose-response curve (AUC) UISO Replicate 1 [3],Area under the dose-response curve (AUC) UISO Replicate 2 [3],Area under the dose-response curve (AUC) UISO Replicate 3 [3],Area under the dose-response curve (AUC) WAGA Replicate 1 [4],Area under the dose-response curve (AUC) WAGA Replicate 2 [4],Area under the dose-response curve (AUC) WAGA Replicate 3 [4],Area under the dose-response curve (AUC) MKL-1 Replicate 1 [5],Area under the dose-response curve (AUC) MKL-1 Replicate 2 [5],Area under the dose-response curve (AUC) MKL-1 Replicate 3 [5],Area under the dose-response curve (AUC) MKL-2 Replicate 1 [6],Area under the dose-response curve (AUC) MKL-2 Replicate 2 [6],Area under the dose-response curve (AUC) MKL-2 Replicate 3 [6],further results
CCc1c2c(nc3ccc(O)cc13)-c1cc3c(c(=O)n1C2)COC(=O)[C@]3(O)CC [SN-38],218.6,222.5,261.5,201.3,194.5,189.1,127.3,148.1,144.2,143.8,150.1,140.2,135.7,150.7,162.0,131.4,119.7,221.9,
"O.O=c1c2ccc(O)c(O)c2oc2c(O)c(O)ccc12 [3,4,5,6-Tetrahydroxyxanthone hydrate]",,,,,,,,,,,,,,,,,,,Area under the dose-response curve (AUC) [1]: 500.0 and 470.6 and 462.5; Area under the dose-response curve (AUC) [2]: 448.2 and 449.4 and 459.1; Area under the dose-response curve (AUC) [3]: 455.2 and 451.1 and 430.7; Area under the dose-response curve (AUC) [4]: 510.8 and 453.0 and 432.4; Area under the dose-response curve (AUC) [5]: 474.6 and 473.6 and 453.4; Area under the dose-response curve (AUC) [6]: 454.0 and 468.2 and 444.8
[O-][n+]1ccccc1SSc1cccc[n+]1[O-] [Dipyrithione],333.5,320.8,288.3,305.7,302.8,280.4,241.8,283.0,225.1,319.9,346.1,356.9,254.8,246.8,245.5,287.6,277.7,248.6,
CN(C(Cc1ccc(O[S+](=O)([O-])c2cccc3cnccc23)cc1)C(=O)N1CCN(c2ccccc2)CC1)[S+](=O)([O-])c1cccc2cnccc12 (stereo not drawn) [KN-62],505.2,474.1,504.9,447.5,438.4,461.3,473.7,471.7,409.6,521.5,471.3,468.9,492.0,481.7,479.5,465.4,466.3,472.5,
C[C@H]1CCC/C=C/[C@@H]2C[C@H](O)C[C@H]2[C@H](O)/C=C/C(=O)O1 [Cyanein],216.1,230.2,238.1,231.7,265.8,194.4,206.3,227.9,213.5,224.1,259.2,236.6,208.9,220.0,232.6,238.6,217.1,214.7,
